Data as given in patent publication US7022315B2, “Administration of a thiol-based chemoprotectant compound” (Oregon Health & Science University, priority 2000, dated 2006).
Marks after values point to notes of the source that are not given here.

How the values were obtained:
rat = system: rat
Experimental: FIG. 9 represents tests showing the effect of NAC route of administration on mortality+/−BSO. A Kaplan-Meier product limit analysis was used to evaluate the mortality due to chemoprotection with NAC. Rats were treated with or without BSO (10 mg/kg i.p. b.i.d.×3, black bars) prior to treatment with chemotherapy (Carboplatin 200 mg/m2, etoposide phosphate 100 mg/m2, melphalan 10 mg/m2). Chemoprotection consisted of NAC (1200 mg/m2) or NAC (1000 mg/m2) plus STS (8 g/m2) given either i.v. (n=17 BBSO, n=8+BSO) or by aortic infusion (n=19 BBSO, n=28+BSO).
A dose escalation of NAC was performed in the rat.
The toxicity of NAC was determined when infused for bone marrow protection.

GM294 human fibroblasts = test: Cytoenhancement and chemoprotection in fibroblasts, WST assay; type: cell-based; settings: independent of BSO treatment; 1000 μg/ml
Experimental: Cytotoxicity was assessed in GM294 human fibroblasts, 1×10^4 cells per well in 96 well plates, using the WST colorometric assay. […] Data are expressed as the percentage of live cells compared to control samples (without chemotherapy) and each point represents the mean±s.d. of 4 wells.

rats [1] = test: Protection against chemotherapy-induced myelosuppression, nadir blood counts; type: in vivo, rat; settings: for White Cell Nadir: mean ± SE
Experimental: FIGS. 10A–10D show the results of tests on chemoprotection for chemotherapy-induced myelosuppression. Rats received tri-drug chemotherapy (Carboplatin 200 mg/m2, etoposide phosphate 100 mg/m2, melphalan 10 mg/m2), with (triangles, squares) or without (circles) chemoprotection. Blood counts were determined prior to chemotherapy, at the blood nadir (6 days), and in the recovery phase (9 days after treatment). Chemoprotection was with NAC (1200 mg/kg) administered via aortic infusion 30 min prior to chemotherapy (triangles) or NAC prior to chemotherapy and STS (8 g/m2) immediately after chemotherapy (squares). In FIG. 10B and FIG. 10D animals received BSO (10 mg/kg i.p.×3 d) prior to treatment with chemotherapy. […] Significant difference from the no protectant groups were determined by Wilcoxon/Kruskal-Walliis rank sums tests (*p<0.05, **p<0.01).
Chemoprotection against chemotherapy-induced bone marrow toxicity was determined in BSO treated and untreated animals given i.a. carboplatin, etoposide phosphate, and melphalan. NAC with or without STS was administered either about 30 minutes prior to chemotherapy or immediately after chemotherapy, and was administered either i.v. or by aortic infusion.

rats [2] = test: Blood counts after chemotherapy with or without NAC by left carotid aortic infusion (Example 1); type: in vivo, rat
Description: The rats were set up for drug administration by pushing a catheter forward past the junction of the external and internal carotid arteries (toward the aorta), and temporarily sealing off the internal carotid for good measure so nothing goes to the brain (left carotid aortic infusion method). In patients where entry is via the femoral artery and the catheter is threaded through the aorta to get to the brain in the first place, one would just pull the catheter back to the aorta to do the NAC infusion.
Rats were treated with carboplatin (200 mg/m^2), melphalan (10 mg/m^2) and etoposide phosphate (100 mg/m^2). In the NAC animals, NAC was infused with the left carotid aortic infusion method immediately after the chemotherapeutic agents, at concentrations ranging from 400–1200 mg/M^2. White blood cells (wbc) and platelets (plt) were counted at baseline before the experiment and at 6 and 9–11 days after treatment with the chemotherapeutic agents. […] Counts are in 1000s per μl blood. […] The lack of white blood cell effect was not repeated as there were significant effects shown below.
The data in table 2 show additional results. […] White blood cells (wbc) and platelets (plt) were counted at baseline before the experiment and at 6 and 9 days after treatment with the chemotherapeutic agents.

[3] = Table 7, no BSO, aortic infusion post chemo
[4] = Table 7, no BSO, i.v. 30 min prior
[5] = Table 7, no BSO, i.v. post chemo
[6] = Table 8, BSO pretreatment, aortic infusion post chemo

CC(=O)N[C@@H](CS)C(=O)O [NAC, N-acetylcysteine]
mortality and toxicity (rat; 1200 mg/kg by aortic infusion 30 minutes prior to chemotherapy, without BSO, 12 animals): no mortality nor any evidence of toxicity
bone marrow protection (rat; 140–800 mg/kg i.v. immediately after chemotherapy, n=4): no detectable bone marrow protection
toxic doses (rat; dose escalation, n=3): above 1200 mg/kg
mortality by route of administration (rat; i.v. versus aortic infusion, Kaplan-Meier, P=0.0014): i.v. administration significantly more toxic than aortic infusion
toxicity (rat; rat, in vivo, 1200 mg/kg): no toxicity
chemoprotection against melphalan, cisplatin and carboplatin cytotoxicity (GM294 human fibroblasts): partially to completely chemoprotective
White Cell Nadir (rats [1]; Table 7, no BSO, aortic infusion 30 min prior (1200 mg/kg), N=6): 69.7 ± 19.3% of baseline
Granulocyte Nadir (rats [1]; [3]): 36.6 ± 17.0% of baseline
Platelet Nadir (rats [1]; [3]): 26.8 ± 9.3% of baseline
White Cell Nadir (rats [1]; Table 7, no BSO, aortic infusion post chemo, N=6): 25.9 ± 4.9% of baseline
Granulocyte Nadir (rats [1]; [4]): 93.5 ± 28.1% of baseline
Platelet Nadir (rats [1]; [4]): 53.3 ± 12.7% of baseline
White Cell Nadir (rats [1]; Table 7, no BSO, i.v. 30 min prior, N=8): 51.4 ± 9.4% of baseline
Granulocyte Nadir (rats [1]; [5]): 57.9 ± 8.8* percent of baseline
Platelet Nadir (rats [1]; [5]): 36.8 ± 10.4% of baseline
White Cell Nadir (rats [1]; Table 7, no BSO, i.v. post chemo, N=6): 46.0 ± 6.5* percent of baseline
Platelet Nadir (rats [1]; Table 8, BSO pretreatment, aortic infusion 30 min prior): 23.1 ± 6.2% of baseline
White Cell Nadir (rats [1]; Table 8, BSO pretreatment, aortic infusion 30 min prior, N=9): 20.1 ± 2.7% of baseline
Granulocyte Nadir (rats [1]; [6]): 19.8 ± 14.7% of baseline
Platelet Nadir (rats [1]; [6]): 11.7 ± 3.5% of baseline
White Cell Nadir (rats [1]; Table 8, BSO pretreatment, aortic infusion post chemo, N=7): 13.9 ± 4.2% of baseline
platelet recovery from chemotherapy (rats [2]): recovered from chemotherapy faster
